The text below walks through data of publication PMC7591920, “A protein tertiary structure mimetic modulator of the Hippo signalling pathway” (Nature Communications, 2020).

Series [1] can be described thus: Circular dichroism, calculated helicity. The following applies: 10 mM sodium phosphate pH 7.4, 75 to 10 µM peptide, CDNN software PEPFIT mode, unbound peptide. In kind it is physicochemical. As to the method:
The spectra were obtained using a Jasco J-715 and a cuvette 0.1 mm. Represented CD spectra are an average of five measurements done between λ = 190 and 300 nm with a continuous scan mode, 50 nm min^−1 scan speed and data point every 1 nm. The α-helicity was calculated using CDNN software using the PEPFIT mode[42].

Series [2] relates to primary juvenile (P5–P6) rat cardiomyocytes. The experiment in a line: Cell cycle activity assay (Ki67/αActinin) in juvenile rat cardiomyocytes. In kind it is cell-based. Particulars: for Effect on cardiomyocyte cell cycle activity: P5–P6 rat heart cells, 4-days incubation, Ki67/αActinin double-positive cells; for Cell cycle activity, MEAN: c = 10 µM, 4 days, relative to DMSO-treated cells (100), mean of N = 6; for Dose-dependent cell cycle stimulation, MEAN: 4-day treatment, relative to DMSO (100), mean of n = 3. The method, then: One day after seeding, the cells were treated with test compounds of interest. Treatments were applied with an ECHO 520 acoustic dispenser (Labcyte) and medium was added to the wells. Four days after treatment, the cells were fixed with 4% formaldehyde (Roth) and immunostained in 0.2% Triton-X100 (Roth) in PBS (Gibco) supplemented with 5% FBS. […] Samples were then imaged and analysed on an ImageXpress XL automated microscope (Molecular Devices). Data are depicted as means ± SEM.

Another series has as its system RKO cells. As to the kind of experiment: Total drug content in RKO cells by UPLC-MS. Particulars: for Total drug content, Measured Concentration: RIPA total lysis, diluted lysate.
A further series deals with T1, hTEAD1–VGL4 complex (Homo sapiens, UniProt P28347).
T1 construct: CDNA of hTEAD1(209–426) fused with an N-terminal GST tag; GST (N); 6x His-tag (N); 3C protease cleavage site (N); made in house; host or cells: Escherichia coli BL21 DE3 RIL(K+); tracer peptide synthetic
T1 sequence (P28347 209-426, one chain of several): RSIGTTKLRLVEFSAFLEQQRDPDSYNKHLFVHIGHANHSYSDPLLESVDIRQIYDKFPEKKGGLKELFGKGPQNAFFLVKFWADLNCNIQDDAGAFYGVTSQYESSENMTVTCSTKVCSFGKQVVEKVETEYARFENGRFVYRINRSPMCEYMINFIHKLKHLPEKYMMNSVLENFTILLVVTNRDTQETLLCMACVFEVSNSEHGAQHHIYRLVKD
The experiment in a line: Competitive FP, displacement of labelled VGL4(203–256) from hTEAD1. It is filed as binding. As to the method:
Next, the ability of the peptides in our panel to inhibit the TEAD–VGL4 interaction was investigated. For this purpose, a competition pull-down experiment was performed using biotinylated VGL4(203–256) (b-1) as the bait for GST-tagged hTEAD1. b-1 was immobilized on streptavidin magnetic beads and hTEAD1 pull-down was detected using gel electrophoresis (Fig. 3d). […] To evaluate how inhibitor binding discriminates between these two binding partners, we performed a competitive binding assay based on FP.
Supplementary Figure 15│ Binding studies of hTEAD1 by fluorescence polarization. Dissociation constants were measured […]
The fluorescent cofactor (10 nM) are directly titrated with hTEAD1. After 1 hour of incubation, fluorescence polarization was measured, and a non-linear fitting was applied to the curves to determine the […]
In the competitive binding assay, first a complex with the fluorescent cofactor (10 nM) and hTEAD1 (100 nM) was formed and after 1 hour of incubation, the unlabelled peptide was titrated. After 1 hour of incubation, fluorescence polarization was measured, and a non-linear fitting was applied to the curves to determine the half maximal inhibitory concentration. (c) Competition assay […]
Mean ± SEM of triplicates were plotted for all data. Source data are provided as a Source Data file.
(1 picture or pasted object on this page, not shown here)

The next series has as its system YAP. The experiment in a line: YAP localization assay in juvenile rat cardiomyocytes. It is filed as cell-based. Particulars: for YAP ratio (nucleus/cytoplasm), Mean: 4 h, primary juvenile rat cardiomyocytes, DMSO mean 2.99; for YAP ratio in cardiomyocytes (nucleus/cytoplasm): fluorescence immunocytochemistry, 8 Hours, mean of n = 3. The method, then:
We analysed the YAP sub-cellular distribution in cardiomyocytes by means of fluorescence intensity after immunocytochemistry. After 3 days in culture, the cardiac cells were treated and fixed 4, 8, and 24 h after treatment. […] Secondary antibodies were used to detect the primary antibodies (goat anti-mouse Alexa Fluor 568, A-11004, dilution 1:1000 and goat anti-rabbit AlexaFluor 488, A-11008, dilution 1:1000, both from Thermo Fisher Scientific) and nuclei were counterstained with DAPI (2-(4-amidinophenyl)-1H-indole-6-carboxamidine, dilution 1:1000, Roth). The samples were then imaged and analysed on an ImageXpress XL automated microscope (Molecular Devices). […] Data are depicted as means ± SEM.

The next series deals with TEAD target genes. As to the kind of experiment: qPCR analysis of TEAD target genes in cardiomyocytes from human ES cell line (H7). Particulars: c = 30 µM, t = 18 h. It is filed as cell-based. For orientation: Quantitative PCR measures a nucleic acid by following its amplification.
Series [3] can be described thus: Peptide stability in cell culture media with 10% FBS. The following applies: 30 µM peptide, MEM + 10% FBS, 37 °C, HPLC/MS, duplicates.
Description: A total of 30 µM of the peptide was incubated in MEM media supplemented with 10% FBS at 37 °C. At the indicated time point, 25 µL of the sample was withdrawn, mixed with an equal volume of the internal standard solution (6 µM Fmoc-Arg(Pbf)-OH), kept on ice for 15 min followed by centrifugation (16×g) at 4 °C for 5 min. The supernatant was analysed with LC-MS (UltiMate 3000 UHPLC Systems) using C18 reverse phase column (Nucleodur, 1.8 µm C18 gravity, 2 mm) and Thermo Orbitrap Velos Pro ETD. The peptide absorbance (λ = 280 nm) or the mass spectrometry peak intensity relative to that of the internal standard peak intensity was graphed. The stability experiments were performed in duplicates.
[4] abbreviates: 25 µM compound, 24 hours, UPLC-MS, n = 2.
[5] abbreviates: 25 µM compound, 24 hours, total lysis, UPLC-MS, n = 2.
The mark [6] stands for this setting: total drug content, 25 µM compound, 90 minutes, mean of 2 replicates.

Bridge positions count the residues as written; N and C are the ends. Square brackets hold non-standard residues; d marks the D form. Peptide text beside a SMILES is read from it. AEEA = NCCOCCOCC(=O)O

Description for RKO cells: Peptides were incubated in RKO cells (ATCC, #CRL-2577) as follows: Experiment 1: RKO cells were incubated in 25 µM compound for 90 min and 24 h. Experiment 2: RKO cells were incubated in 25 µM for 30 min or 72 h. Following peptide incubation, the cells were washed twice with PBS, trypsinized and pelleted. The pellets were lysed in RIPA buffer (Perkin Elmer) for total lysis, or CelLytic NuCLEAR Extraction Kit (SIGMA) for subcellular fractionation. Total protein quantification BCA (Pierce) was performed prior to MS analysis to normalize sample data. Total and fractionated cell lysates were analysed by quantitative UPLC-MS utilizing a Waters Xevo TQ-XS (WBA0259) and an Acquity UPLC system from Waters consisting of Sample Manager (M16UFL953M), Acquity PDA (F17UPD457A), Column Oven (E17CMP703G) and Binary Solvent Manager (E17BUR621G). […] Chromatograms of the samples were treated similarly, and by linear regression (1/x) an in-cell concentration was established in the re-suspended cell lysate using the Waters MassLynx TargetLynx^TM product.

Turning to `CC[C@H](C)[C@@H]1NC(=O)[C@H](CCC(N)=O)NC(=O)[C@H](CC(C)C)NC(=O)[C@H](Cc2c[nH]c3ccccc23)NC(=O)[C@H]([C@@H](C)O)NC(=O)[C@H](CC(=O)O)NC(=O)CNC(=O)[C@H](CC(C)C)NC(=O)[C@H](C)NC(=O)[C@H](CCCCN)NC(=O)[C@H](C)NC(=O)[C@H](Cc2ccccc2)NC(=O)[C@H](Cc2c[nH]cn2)NC(=O)[C@H](CC(=O)O)NC(=O)[C@@H](NC(=O)[C@@H](NC(=O)[C@H](CO)NC(C)=O)C(C)C)CCC(=O)NCCCC[C@@H](C(=O)N[C@@H](C)C(=O)N[C@@H](C)C(N)=O)NC1=O` [4E] (Ac-SVEDHFAKALGDTWLQIKAA-NH2; lactam 3-18), the “Helicity (CD)” value in series [1] is reported as 23%. For the same compound, in series [2], the “Effect on cardiomyocyte cell cycle activity” value is “has no effect” and the “Cell cycle activity, MEAN” value is 92.7542. In the series on RKO cells (setting [4]), the “Total drug content, Measured Concentration” value is recorded as “< LLOQ”. Moreover, in the series on RKO cells (setting [5]), the “Total drug content, nMol” value is recorded as “< LLOQ”. For the same compound, the “Total drug content, pMol.mg-1” value in the series with RKO cells (25 µM compound, 24 hours, total lysis, UPLC-MS, normalised to BCA protein, n = 2) was “< LLOQ”. Further, in the series with RKO cells (setting [6]), the “pMol/mg of protein, Mean” value is recorded as 424.4 pMol/mg of protein.

As usually defined, the IC50 is the concentration at which inhibition is half-maximal. Turning to `CC[C@H](C)[C@@H]1NC(=O)[C@H](CCC(N)=O)NC(=O)[C@H](CC(C)C)NC(=O)[C@H](Cc2c[nH]c3ccccc23)NC(=O)[C@H]([C@@H](C)O)NC(=O)[C@H](CC(=O)O)NC(=O)CNC(=O)[C@H](CC(C)C)NC(=O)[C@H](C)NC(=O)[C@H](CCCCN)NC(=O)[C@H](C)NC(=O)[C@H](Cc2ccccc2)NC(=O)[C@H](Cc2c[nH]cn2)NC(=O)[C@H](CC(=O)O)NC(=O)[C@@H](NC(=O)[C@@H](NC(=O)[C@H](CO)NC(=O)COCCOCCNC(=O)[C@H](CCC(N)=O)NC(=O)[C@@H]2CCCN2C(=O)[C@H](CCCNC(=N)N)NC(=O)[C@H](CCCNC(=N)N)NC(=O)[C@H](CCCNC(=N)N)NC(=O)[C@H](CCC(N)=O)NC(=O)[C@H](CCCNC(=N)N)NC(=O)[C@H](CCCNC(=N)N)NC(=O)[C@H](CCCCN)NC(=O)[C@H](CCCCN)NC(=O)[C@H](CCCNC(=N)N)NC(=O)CNC(C)=O)C(C)C)CCC(=O)NCCCC[C@@H](C(=O)N[C@@H](C)C(=O)N[C@@H](C)C(N)=O)NC1=O` [compound 7] (Ac-GRKKRRQRRRPQ[AEEA]SVEDHFAKALGDTWLQIKAA-NH2; lactam 16-31), at hTEAD1–VGL4 complex (hTEAD1), the “required concentration for VGL4 competition in the homogeneous FP-based competition assay” value is reported as “ca. 10 µM”. Moreover, the concentration for half-maximal inhibition (IC50) on hTEAD1–VGL4 complex (labelled VGL4(203–256) 10 nM + hTEAD1 100 nM pre-incubated 1 h, unlabelled peptide titrated, 1 h, triplicates, read-out: IC50, inhibition of hTEAD1–VGL4 complex) is 5.46 ± 0.253 µM. In addition, the “YAP ratio (nucleus/cytoplasm), Mean” value in the series with YAP (5 µM) was 3.475; with YAP (5 µM, listed as peptide 7), 3.48; in the series with YAP (10 µM) it was 5.895; in the series on YAP (10 µM, listed as peptide 7), 5.89. For the same compound, the “YAP ratio in cardiomyocytes (nucleus/cytoplasm)” value was 2.607 with YAP (5 µM of 7) and 3.272 with YAP (10 µM of 7). The “Effect on sub-cellular distribution of YAP” value in the series with YAP (juvenile rat cardiomyocytes, 4 h treatment, vs vehicle control) was “increased nuclear accumulation of YAP”. In the series on TEAD target genes (qPCR), the “Effect on expression of TEAD target genes” value is “increased levels of the cell cycle genes CYR61, CTGF, ANKRD1, and SEPINE1”. For the same compound, the “RQ (relative target quantity)” value in the series with TEAD target genes (target gene ANKRD1, RT-qPCR) stood at 4.731; in the series on TEAD target genes (target gene CTGF, RT-qPCR) it was 1.987; in the series with TEAD target genes (target gene CYR61, RT-qPCR) it was 3.964; in the series with TEAD target genes (target gene SERPINE1, RT-qPCR), 3.52. For the same compound, the “Dose-dependent cell cycle stimulation, MEAN” value in series [2] (1 mM (so in the source)) is listed as 106.813; in series [2] (5 mM (so in the source)), 131.729; in series [2] (10 mM (so in the source)) it was 172.672. Moreover, the “Effect on cardiomyocyte cell cycle activity” value in series [2] is on record as “stimulates cell cycle activity to the same extent as positive controls”. The “Cell cycle activity, MEAN” value in series [2] is recorded as 148.037. The “Total drug content, Measured Concentration” value with RKO cells (25 µM compound, 90 minutes, UPLC-MS, n = 2) is 122.09 ± 7.277 nM; in the series with RKO cells (setting [4]), 91.646 ± 61.816 nM. Further, the “Total drug content” value turned out to be 0.1831 ± 0.01091 nmol in the series with RKO cells (25 µM compound, 90 minutes, total lysis, UPLC-MS, n = 2) and 0.1375 ± 0.09272 nmol in the series with RKO cells (setting [5]). The “loss of total concentration between 90 min and 24 h incubation” value in the series with RKO cells (25 µM, authors' response in peer review file) was determined as 30%. The “Measured Conc” value with RKO cells (total drug content, 25 µM compound, 90 minutes, UPLC-MS, dilution factor 10, replicate 1) is recorded as 114.813 nM; in the series on RKO cells (total drug content, 25 µM compound, 90 minutes, UPLC-MS, dilution factor 10, replicate 2), 129.367 nM; with RKO cells (total drug content, 25 µM compound, 24 hours, UPLC-MS, dilution factor 10, replicate 1), 153.462 nM; with RKO cells (total drug content, 25 µM compound, 24 hours, UPLC-MS, dilution factor 10, replicate 2) it was 29.83 nM. Further, the “pMol/mg of protein, Mean” value in the series on RKO cells (setting [6]) is listed as 183.0 pMol/mg of protein. Moreover, the “pMol/mg, Mean” value with RKO cells (total drug content, 25 µM compound, 24 hours, mean of 2 replicates) turned out to be 127.1 pMol/mg. Further, in series [3], the “peptide intact after 24 h” value is “about 80%”.
